Read-outs that look alike come from different tables or passages of the source.
Legend:
3T3-L1 cell = test: Inhibitory activity on triglycerides accumulation in adipocyte (Oil Red O staining); type: cell-based, mouse; conditions: read-out: IC50-value on triglycerides accumulation in adipocyte
Experimental: (§1) 3T3-L1 mouse embryonic fibroblast was cultured according to Singh's method (Singh R, Testosterone inhibits adipogenic differentiation in 3T3-L1 cells: Nuclear translocation of androgen receptor complex with β-catenin and T-cell factor 4 may bypass canonical WNT signaling to down-regulate adipogenic transcription factors, Endocrinology, 2006, 147, 141 to 154).
(§2) 3T3-L1 cells supplied by Korean cell line bank were cultured on a Dulbecco's modified Eagle's medium (DMEM) medium that includes 10% bovine calf serum and 1% penicillin-streptomycin mixture. When they reached confluence, culturing was continued for further 2 to 3 days. Thereafter, the medium was replaced by a fresh DMEM medium containing 10% fetal bovine serum, 1.7 μM insulin, 0.5 mM 3-isobutyl-1-methylxanthine (IBMX) and 1 μM dexamethasone and culturing was continued for 8 days. For the evaluation of inhibitory activities of capsanthin on adipocyte differentiation and on triglycerides accumulation in adipocyte, a positive control experiments were conducted on capsaicin (sigma) and/or genistein (sigma).
Negal's Oil red O staining procedure (Negrel R, Culture of adipose precursor cell and cells of clonal lines from animal white adipose tissue, in adipose tissue protocols. G. Ailhaud (ed). Humana press, inc., Totowa, N.J., 2001, 225-237) was adopted to assay the quantities of triglyceides accumulated in adipocytes. The pre-adipocytes (3T3-L1 cell) were cultured in 12-well culture plate for additional two days to induce clonal expansion after the confluent phase. The culture media was replaced with differentiation media which is containing various concentration of capsanthin solution in DMSO (final concentration of DMSO in the differentiation media were kept under 0.1%) and cultured for additional 8 days to induce lipid accumulation. The culture media was removed by aspiration and washed with PBS. The cells were fixed on the surface of culture well by incubation for one hour with 500 ul of 10% formaldehyde solution. After removal of formaldehyde the cells were washed with PBS and then stained by incubation with Oil Red O for 2 hours. After two removal of Oil Red O solution by aspiration the cells were washed with PBS and then Oil Red O in adipocyte was extracted by incubation 10 minutes with 1 ml isopropyl-alcohol. Oil Red O contents in isopropyl-alcohol were assayed by 510 nm absorption on ELISA reader.

[1] = design: species or system Sprague-Dawley albino rats; conditions: rat, in vivo
Experimental: Male Sprague-Dawley albino rats were used for the analysis of gastro-intestinal absorption of capsanthins. Animals were accommodated in a constant humidity of 50 (±5) % and constant temperature of 25 (±1)° C. under shading control of light and dark with 12 hours intervals. Feeds and water supplies were provided at libidium.
Free-form capsanthin (15 mg/kg body wt) in soy-bean oil was orally administered to group-1 animals and then 4 ml time-course blood samples were collected from the animals to EDTA tubes and centrifuged (3,000 rpm, 10 min) to obtain 1 ml plasma samples. To the plasma samples 1 ml of 1%-BHT in ethanol and 2 ml hexane were mixed, shaked vigorously and centrifuged for 5 minutes at 2,000 rpm to obtain hexane layer for the HPLC-analysis under the HPLC-condition appears in Example 10. (M. A. Grashom, Quantification of carotenoids in chicken plasma after feeding free of esterified lutein and capsanthin using high-performance liquid chromatography and liquid chromatography-mass spectrometry analysis, Poultry science, 2003, 82, 395-401, Hideo E, Carotenoids in human blood plasma after ingesting paprika juice)
Fatty-acyl ester of capsanthin was orally administered to group-2 animals equimolar dosage bases with that of free-form capsanthin. The time course collection of blood and further treatments were conducted as same way with that of group-1 experiments [Ref. to 0086]

3T3-L1 cells = test: Inhibition test on adipocyte differentiation (counting of Oil Red O stained cells); type: cell-based, mouse; conditions: 3 days in differentiation medium, microscopical counting of Oil Red O stained cells
Experimental: as §1, §2
Mouse embryonic 3T3-L1 cells were plated in 12-well culture plate with DMEM containing 10% BCS (Bovine calf serum) and cultured for the proliferation of cells under 5% CO2 atmosphere at 37° C. until confluent phase is appeared. Continued culture for additional 2 days will ensure the clonal expansion. Culture media is replaced with differentiation medium consisting of DMEM, 10% FBS, 1.7 uM insulin, 0.5 mM IBMX, 1 uM dexamethasone and varying amount of capsanthin in DMSO (final concentration of DMSO in the differentiation media were kept under 0.1%) and cultured additional 3 days for the induction of cell differentiation Culture media was removed and washed with PBS and the cells were fixed on the well surface by incubation with 10% formaldehyde for one hour and then washed with PBS. The differentiate cells were stained with Oil Red O solution for 2 hours. The number of adipocyte stained red was counted with microscopical observation.

[2] = Stability during fermentation of kochujang; type: physicochemical
Text: Capsanthin is contained in the natural products such as red peppers as the chemically stable esterified-form. Therefore, even when red peppers or the likes are included in fermented foods as the Korean traditional foods like “kimchi” or “kochujang” (also referred to as “gochujang”), original anti-adipogenic activities thereof are retained. On the other hand, it was found in our laboratory that about 35% or more of anti-adipogenic capsaicin component was destroyed during 6 month-long fermentation.
Red pepper is a traditional spicy vegetable food and more than 90% of total consumption in Korea is used to prepare traditional fermented food such as “kimchi” and “kochujang” in Korea. […] Based on this observation, present inventors are claiming that the anti-adipogenic activity of “kochujang” is due more to capsanthin components rather than to the capsaicin or capsaicin metabolite.

[3] = 3T3-L1 cells, 8 days in differentiation media, Oil Red O

Row | Molecular species found in the blood by HPLC after oral administration [1] | Compound | IC50 (3T3-L1 cell; [3]) [µM] | IC50 (3T3-L1 cells) [µM] | Chemical alteration during fermentation of kochujang [2] | IC50 (3T3-L1 cell; Mus musculus, 192 h, 3T3-L1 cells, 8 days in differentiation media, Oil Red O) [µM] | IC50 (3T3-L1 cells; Mus musculus, 72 h) [µM] | IC50 (3T3-L1 cell; Mus musculus, 3T3-L1, 192 h) [µM] | Component destroyed during fermentation ([2]; 6 month-long fermentation) [%]
1 | appeared in the blood | CC1=C(/C=C/C(C)=C/C=C/C(C)=C/C=C/C=C(C)/C=C/C=C(C)/C=C/C(=O)[C@]2(C)C[C@@H](O)CC2(C)C)C(C)(C)C[C@H](O)C1 [free-form capsanthin, capsanthin] | 1.31 | 4.49 |  |  |  |  | 
2 | not detected | fatty-acyl ester of capsanthin [esterified-form capsanthin] | 55.2 | 75.4 | remained without any chemical alteration |  |  |  | 
3 |  | O=c1c(-c2ccc(O)cc2)coc2cc(O)cc(O)c12 [genistein] |  |  |  | 58.7 | 28.1 |  | 
4 |  | COc1cc(CNC(=O)CCCC/C=C/C(C)C)ccc1O [capsaicin] |  |  | significant decomposition |  | 3.39 | 32.6 | ≥ 35
5 |  | fucoxanthin | 54.8 | 79.1 |  |  |  |  | 
